As usually defined, the log P is a log measure of how a compound divides between an organic and an aqueous phase. A lower log P goes with a more hydrophilic compound.

Consider four compounds from patent US8562946B2, “Miniaturized 62Zn/62Cu generator for high concentration clinical delivery of 62Cu kit formulation for the facile preparation of radiolabeled Cu-bis(thiosemicarbazone) compounds” (Proportional Technologies, Inc., priority 2003, dated 2013).

Series [1] can be described thus: ligand solubility (DMSO, water). Format: physicochemical. The following applies: crystalline form dissolved in DMSO. Here is the method:
Studies evaluating the compatibility of the bis(thiosemicarbazone) ligands with lyophilization based kit synthesis were conducted using H2PTSM as a model compound. The first of these studies evaluated the feasibility of ligand lyophilization and rapid reconstitution. The entire class of bis(thiosemicarbazone) compounds is very insoluble in water. Consequently, in order to prepare a principally aqueous solution for lyophilization, the crystalline form of the H2PTSM was dissolved at the maximum concentration in dimethylsulfoxide (DMSO), (200 mg/mL H2PTSM). […] To minimize the possibility of ligand precipitation, the DMSO solution was added to hot water (90° C.) during rapid stifling. This solution was then cooled to room temperature and assayed for potency using a spectrophotometer. The very small amount of DMSO in the aqueous solution is expected to sublimate along with water during lyophilization. In order to ensure maximum potency after lyophilization, an excipient (either dextrose [6.7 mg/mL], trehalose [6.7 mg/mL] or sodium acetate [5.4 mg/mL]) was added. The purpose of the excipient was to prevent the ligand from crystallizing out by maintaining dispersion in the cake formed during lyophilization. The sodium acetate performed the added function of buffering the final product to acceptable pH upon addition of 0.1-0.15 mL of ^62Zn/^62Cu generator eluted solution. […]

For series [2] the following is noted: cited from earlier work.
Series [3] can be described thus: octanol/water partition coefficients of Cu bis(thiosemicarbazone) complexes. The format is physicochemical.
The conditions of series [4]: in humans; cited from earlier work.
The conditions of series [5]: most animal species other than humans; cited from earlier work.

Molecules are shown by their SMILES. Read-outs that look alike come from different tables or passages of the source.

As to `CNC(=S)NN=CC(C)=NNC(=S)NC` [H2PTSM, pyruvaldehyde bis(N4-methylthiosemicarbazone)], in series [1], the “maximum concentration in dimethylsulfoxide (DMSO)” value was 200 mg/mL.

As for `CCC(C=NNC(N)=S)=NNC(N)=S.[Cu]` [ETS, ^62Cu ethylglyoxal bis(thiosemicarbazone)], the “binding to blood plasma” value in series [2] is recorded as “low reversible binding”. For the same compound, the “log P” value in series [3] (octanol/water, from measured partition coefficients P of the corresponding 67Cu-complexes) was determined as 1.35.

For `CNC(=S)NN=C(C)C(C)=NNC(=S)NC` [H2ATSM, diacetyl-bis(N4-methylthiosemicarbazone)], the “difference in octanol/water partition coefficients” value in series [3] (H2ATSM vs H2PTSM (Table 2)) is recorded as 0.34.

Take `CN=C([S-])N/N=C/C(C)=N/NC([S-])=NC.[Cu+2]` [PTSM, Copper(II) ^62Cu pyruvaldehyde bis(N4-methylthiosemicarbazone)]: the values for the binding to blood result in series [4] and in series [5] were “significant binding” and “low binding”, respectively.
